Measured values as given in ChEMBL document CHEMBL4840357, “Functionalized Dioxonaphthoimidazoliums: A Redox Cycling Chemotype with Potent Bactericidal Activities against Mycobacterium tuberculosis” (J Med Chem, 2021).
≈ marks a conversion by molar mass, not a printed value. Calls of active or inactive are those of the source. No cut-off for these calls is given here.

Legend:
[1] = tested on: Mycobacterium tuberculosis variant bovis BCG; test: Antimycobacterial activity against Mycobacterium bovis BCG ATCC 35734 incubated for 5 days by broth dilution method; type: functional; conditions: ATCC 35734, 120 h, time 5 day
[2] = tested on: Mycobacterium tuberculosis variant bovis BCG; test: Bactericidal activity against Mycobacterium bovis BCG ATCC 35734 incubated for 5 days by broth dilution method; type: functional; conditions: ATCC 35734, 120 h, time 5 day, read-out: MBC99.9
[3] = tested on: Mycobacterium tuberculosis variant bovis BCG; test: Ratio of MIC for antimycobacterial activity against Mycobacterium bovis BCG ATCC 35734 in absence of glycerol to MIC for antimycobacterial activity against Mycobacterium bovis BCG ATCC 35734 in presence of glycerol; type: functional
Cell membrane = test: Induction of cell envelope stress in Mycobacterium bovis BCG ATCC 35734 expressing piniBAC RFP at 100 times MIC90 after 24 hrs by fluorescence analysis; type: functional, subcellular; conditions: Mycobacterium tuberculosis variant bovis BCG
[4] = tested on: Mycobacterium tuberculosis variant bovis BCG; test: Induction of ROS generation in Mycobacterium bovis BCG ATCC 35734 after 90 mins by cellrox-green reagent based assay; type: functional, organism-based
[5] = tested on: Mycobacterium tuberculosis variant bovis BCG; test: Induction of ROS generation in Mycobacterium bovis BCG ATCC 35734 at 2 times of MIC90 measured upto 24 hrs by cellrox-green reagent based assay; type: functional, organism-based; conditions: time hrs <=24
[6] = tested on: Mycobacterium tuberculosis variant bovis BCG; test: Induction of oxidative stress Mycobacterium bovis BCG-pfurA-RFP ATCC 35734 assessed as activation of pfurA after 24 hrs by fluorescence assay; type: functional, organism-based
[7] = tested on: Mycobacterium tuberculosis variant bovis BCG; test: Antimycobacterial activity against Mycobacterium bovis BCG ATCC 35734 carrying katG loss-of-function mutant assessed fold reduction in MIC at 1 to 2 times of MIC90 incubated for 5 days under liquid medium; type: functional, organism-based; conditions: time 5.0 day
[8] = tested on: Mycobacterium tuberculosis variant bovis BCG; test: Antimycobacterial activity against Mycobacterium bovis BCG ATCC 35734 carrying katG loss-of-function mutant assessed fold reduction in MIC at 1 to 2 times of MIC90 incubated for 5 days under solid agar medium; type: functional, organism-based; conditions: time 5.0 day
[9] = tested on: Mycobacterium tuberculosis variant bovis BCG; test: Induction of ROS generation in Mycobacterium bovis BCG ATCC 35734 at <= 1 times of MIC90 after 90 mins by cellrox-green reagent based assay; type: functional, organism-based
[10] = tested on: Mycobacterium tuberculosis variant bovis BCG; test: Induction of ROS generation in Mycobacterium bovis BCG ATCC 35734 at 2 times of MIC90 after 90 mins by cellrox-green reagent based assay; type: functional, organism-based
[11] = tested on: Mycobacterium tuberculosis variant bovis BCG; test: Induction of oxidative stress Mycobacterium bovis BCG-pfurA-RFP ATCC 35734 assessed as activation of pfurA at 0.5 to 2 times MIC90 after 24 hrs by fluorescence assay; type: functional, organism-based

| Structure (SMILES) | MIC90 [1] [µM] | also measured |
| --- | --- | --- |
| CCn1c(C)nc2c1C(=O)c1ccccc1C2=O | > 50 |  |
| CCCCn1c2c([n+](Cc3ccccc3)c1C)C(=O)c1ccccc1C2=O | 0.43 |  |
| CCCCn1c2c([n+](CCCC)c1C)C(=O)c1cccnc1C2=O | 12 |  |
| CCCCCCCCCCCC[n+]1c2c(n(CC(C)C)c1C)C(=O)c1ccccc1C2=O | 0.54 |  |
| CCCCCCCCCCn1c(C)nc2c1C(=O)c1ccccc1C2=O | 47 (≈ 16.6 µg/mL) |  |
| CCCCn1c2c([n+](C3CCCCCCC3)c1C)C(=O)c1ccccc1C2=O | 0.6 |  |
| Cc1n(C)c2c([n+]1C1CC1)C(=O)c1ccccc1C2=O | 34 |  |
| CCC[n+]1c2c(n(C)c1C)C(=O)c1ccccc1C2=O | 18 |  |
| CCCCn1c2c([n+](CCCN3CCOCC3)c1C)C(=O)c1ccccc1C2=O | 13 |  |
| CCCCCCCCCCn1c2c([n+](C(C)CC)c1C)C(=O)c1ccccc1C2=O (stereo not given) | 0.52 |  |
| CCCCn1c2c([n+](C3CCC4(CCCCC4)CC3)c1C)C(=O)c1ccccc1C2=O.[Br-] | 0.3 | MIC50 [1]: 0.13 µM; MBC [2]: 1.3 µM; Ratio [3]: < 2; Activity (Cell membrane): inactive; Activity [4]: Dose-Dependent Effect; Activity [5]: Active; Activity [6]: Dose-Dependent Effect; Activity [7]: inactive; Activity [8]: Active |
| CCCn1c2c([n+](C(C)CC)c1C)C(=O)c1ccccc1C2=O (stereo not given) | 5.5 |  |
| CCCCCCCCn1c(C)nc2c1C(=O)c1ccccc1C2=O | 11 (≈ 3.57 µg/mL) | Activity [9]: inactive; Activity [10]: Active; Activity [11]: inactive |
| Cc1n(C)c2c([n+]1C(C)C)C(=O)c1ccccc1C2=O | 6.2 |  |
| CCCCn1c2c([n+](C(C)CC)c1C)C(=O)c1ccccc1C2=O (stereo not given) | 3.1 |  |
| CCC(C)[n+]1c2c(n(CC(C)C)c1C)C(=O)c1ccccc1C2=O (stereo not given) | 3.6 |  |
| CCC[n+]1c2c(n(CC(C)C)c1C)C(=O)c1ccccc1C2=O | 3 |  |
| CCCCCCn1c2c([n+](CCCCCC)c1C)C(=O)c1ccccc1C2=O | 0.22 | MIC50 [1]: 0.11 µM; MBC [2]: 0.64 µM; Ratio [3]: < 2 |
| CCCCn1c2c([n+](CCCC)c1C)C(=O)c1ccncc1C2=O | 21 |  |
| CCCCCCCC[n+]1c2c(n(CC(C)C)c1C)C(=O)c1ccccc1C2=O | 0.26 | MIC50 [1]: 0.14 µM; Ratio [3]: < 2 |
| NNC(=O)c1ccncc1 [ISONIAZID] |  | MIC50 [1]: 1.6 µM (≈ 0.219 µg/mL) |

| Structure (SMILES) | MIC90 [1] [µM] | also measured |
| --- | --- | --- |
| CCCn1c2c([n+](CCC)c1C)C(=O)c1ccccc1C2=O | 25 |  |
| CCCCn1c2c([n+](C3CCCCC3)c1C)C(=O)c1ccccc1C2=O | 1.4 |  |
| CCCCCCCCn1c2c([n+](C(C)CC)c1C)C(=O)c1ccccc1C2=O (stereo not given) | 0.46 |  |
| Cc1n(C2CC2)c2c([n+]1C1CC1)C(=O)c1ccccc1C2=O | 37 |  |
| CCCCCCCCn1c2c([n+](CCCCCCCC)c1C)C(=O)c1cccnc1C2=O | 10 |  |
| CCCC[n+]1c2c(n(CCC)c1C)C(=O)c1ccccc1C2=O | 2.3 |  |
| CCCC[n+]1c2c(n(C)c1C)C(=O)c1ccccc1C2=O | 6.7 |  |
| CCCCCCCCn1c(C)nc2ccccc21 | 23 (≈ 5.62 µg/mL) |  |
| Cc1n(CC(C)C)c2c([n+]1CC(C)C)C(=O)c1ccccc1C2=O | 1.9 |  |
| CCCCCCCCn1c(C)[n+](CCCC)c2ccccc21 | > 50 |  |
| CCCCCCn1c2c([n+](CCCCCC)c1C)C(=O)c1ccncc1C2=O | 5.4 |  |
| Cc1n(C(C)C)c2c([n+]1C1CC1)C(=O)c1ccccc1C2=O | 35 |  |
| CCCn1c(C)nc2c1C(=O)c1ccccc1C2=O | > 50 |  |
| CCCCCn1c(C)nc2c1C(=O)c1ccccc1C2=O | 39 (≈ 11 µg/mL) |  |
| CCC(C)[n+]1c2c(n(C(C)C)c1C)C(=O)c1ccccc1C2=O (stereo not given) | 11 |  |
| CCCCCCCCCn1c2c([n+](CCCCCCCCC)c1C)C(=O)c1ccncc1C2=O | 2.6 |  |
| Cc1n(C)c2c([n+]1C)C(=O)c1ccccc1C2=O | 40 |  |
| CCCCCCCCn1c2c([n+](C3CCC4(CCCCC4)CC3)c1C)C(=O)c1ccccc1C2=O | 0.2 | MIC50 [1]: 0.11 µM; MBC [2]: 0.2 µM |
| CCCCCCn1c2c([n+](C(C)CC)c1C)C(=O)c1ccccc1C2=O (stereo not given) | 0.66 |  |
| CCCCCCCC[n+]1c2c(n(CCCC)c1CC)C(=O)c1ccccc1C2=O | 0.49 |  |
| Cc1nc2c(n1C)C(=O)c1ccccc1C2=O | > 50 |  |

| Structure (SMILES) | MIC90 [1] [µM] | also measured |
| --- | --- | --- |
| CCCC[n+]1c2c(n(C(C)C)c1C)C(=O)c1ccccc1C2=O | 3.1 |  |
| CCCC[n+]1c2c(n(CC(C)C)c1C)C(=O)c1ccccc1C2=O | 1.5 |  |
| CCCCCCn1c2c([n+](CCCCCC)c1C)C(=O)c1cccnc1C2=O | 2.3 |  |
| Cc1n(CC(C)C)c2c([n+]1C1CC1)C(=O)c1ccccc1C2=O | 6 |  |
| CCC(C)[n+]1c2c(n(CC)c1C)C(=O)c1ccccc1C2=O (stereo not given) | 11 |  |
| CCn1c2c([n+](CC)c1C)C(=O)c1ccccc1C2=O | 17 |  |
| CCCn1c2c([n+](CC)c1C)C(=O)c1ccccc1C2=O | 8.3 |  |
| CCCCCCCCCC[n+]1c2c(n(CC(C)C)c1C)C(=O)c1ccccc1C2=O | 0.36 |  |
| CCCCn1c2c([n+](CC)c1C)C(=O)c1ccccc1C2=O | 7.7 |  |
| CCCCCCn1c(C)nc2c1C(=O)c1ccccc1C2=O | 15 (≈ 4.45 µg/mL) | Activity [9]: inactive; Activity [10]: Active; Activity [11]: inactive |
| CCCCCCCCCCn1c2c([n+](CCCCCCCCCC)c1C)C(=O)c1ccccc1C2=O | 3.1 |  |
| CCCCCCn1c2c([n+](CCCCCC)c1CC)C(=O)c1ccccc1C2=O | 0.52 |  |
| CCCCCCCCn1c2c([n+](CCCCCCCC)c1C)C(=O)c1ccncc1C2=O | 1.1 |  |
| Cc1n(C(C)C)c2c([n+]1C(C)C)C(=O)c1ccccc1C2=O | 25 |  |
| CCCCCCCCn1c2c([n+](CCCCCC)c1C)C(=O)c1ccccc1C2=O | 0.34 |  |
| CCCn1c2c([n+](C3CC3)c1C)C(=O)c1ccccc1C2=O | 17 |  |
| CCCCn1c(C)nc2c1C(=O)c1ccccc1C2=O | > 50 |  |
| CCCCCCCCn1c2c([n+](CCCCC)c1C)C(=O)c1ccccc1C2=O | 0.33 |  |
| CCCn1c2c([n+](C(C)C)c1C)C(=O)c1ccccc1C2=O | 21 |  |
| CCCCn1c(C)nc2ccccc21 | > 50 |  |
| CCCCCCCCCCCCn1c(C)nc2ccccc21 | 10 (≈ 3 µg/mL) |  |

| Structure (SMILES) | MIC90 [1] [µM] | also measured |
| --- | --- | --- |
| Cc1n(CC(C)C)c2c([n+]1C)C(=O)c1ccccc1C2=O | 6.3 |  |
| CCCCCCCCn1c2c([n+](CCCC)c1C)C(=O)c1cccnc1C2=O | 3.3 |  |
| Cc1n(CC(C)C)c2c([n+]1C(C)C)C(=O)c1ccccc1C2=O | 5.6 |  |
| CCCCn1c2c([n+](C3CC3)c1C)C(=O)c1ccccc1C2=O | 6.9 |  |
| CCC(C)[n+]1c2c(n(C3CC3)c1C)C(=O)c1ccccc1C2=O (stereo not given) | 13 |  |
| CCCCCC[n+]1c2c(n(CC(C)C)c1C)C(=O)c1ccccc1C2=O | 0.3 | MIC50 [1]: 0.18 µM; Ratio [3]: < 2 |
| CCC(C)[n+]1c2c(n(C)c1C)C(=O)c1ccccc1C2=O (stereo not given) | 13 |  |
| CCCCCCCCn1c2c([n+](CCCCCCCC)c1C)C(=O)c1ccccc1C2=O | 0.88 |  |
| CCCCn1c2c([n+](CCC3CCCCC3)c1C)C(=O)c1ccccc1C2=O | 0.37 |  |
| CC(C)/N=c1\cc2n(-c3ccc(Cl)cc3)c3ccccc3nc-2cc1Nc1ccc(Cl)cc1 [CLOFAZIMINE] | 0.4 (≈ 0.189 µg/mL) | MIC50 [1]: 0.2 µM (≈ 0.0947 µg/mL) |
| CCn1c2c([n+](C3CC3)c1C)C(=O)c1ccccc1C2=O | 15 |  |
| CCCCCC[n+]1c2c(n(CCCC)c1C)C(=O)c1ccccc1C2=O | 0.43 |  |
| CCCCCCCCCCCCn1c2c([n+](CCCCCCCCCCCC)c1C)C(=O)c1ccccc1C2=O | 4.8 |  |
| CC[n+]1c2c(n(CC(C)C)c1C)C(=O)c1ccccc1C2=O | 4.9 |  |
| CCCCCCCCCCn1c(C)nc2ccccc21 | 15 (≈ 4.09 µg/mL) |  |
| CCCCn1c2c([n+](CCCC)c1C)C(=O)c1ccccc1C2=O | 1.9 |  |
| CC[n+]1c2c(n(C)c1C)C(=O)c1ccccc1C2=O | 22 |  |
| CCCCn1c2c([n+](CC3CCCCC3)c1C)C(=O)c1ccccc1C2=O | 0.35 |  |
| CCCCCCn1c2c([n+](C3CCC4(CCCCC4)CC3)c1C)C(=O)c1ccccc1C2=O | 0.15 | MBC [2]: 0.2 µM |
| Cc1nc2c(n1C(C)C)C(=O)c1ccccc1C2=O | > 50 |  |
| CC[n+]1c2c(n(C(C)C)c1C)C(=O)c1ccccc1C2=O | 15 |  |
